Measurements: patent US20230340419A1, “METHODS FOR GENERATION OF MOUSE AND HUMAN URETERIC BUD ORGANOIDS AND COLLECTING DUCT ORGANOIDS” (University of Southern California, priority 2020, published 2023)

Assays:
Type in all cases: cell-based, mouse
Wnt11-RFP UB organoid [1] = assay: Stage III 1st round screening of growth factors and small molecules for UB organoid culture condition; conditions: for Wnt11-RFP / Organoid growth: reagent added to FGF9 + C3 + TTNPB + GDNF, compared to that control group; for Effect when used individually: individual versus combinatorial use of JAKI and SB202190
Description: We employed this Wnt11-RFP reporter system as a readout to screen for a culture condition that maintained the progenitor identity of UPCs in vitro. T-shaped UBs were manually isolated from E11.5 kidneys of Wnt11-RFP mice, and immediately embedded into Matrigel to set up a 3D culture platform that supported epithelial branching. In this 3D culture format, built on previous efforts towards the ex vivo culture of UB, hundreds of different combinations of growth factors and small molecules were tested (see also the Materials and Techniques section below for details under subheading “Screening for optimal UB culture condition”).
We systematically screened the optimal UB culture condition in four different stages (Stages I-IV).
In Stage III, based on the optimized recipe consisting of FGF9, TTNPB, CHIR99021 (3 μM) and GDNF, we preformed our 1st round of screening of growth factors and small molecules targeting major developmental pathways (e.g. TGF-β, BMP, Wnt, FGF, Hedgehog and Notch) and others. The branching morphogenesis, growth rate and Wnt11-RFP were recorded as readouts (Table 1). […] Representative images were taken at least for LDN193189, A83-01, and R-Spondin 1. These individual hits were then subjected to a 2nd round of screening to test their effects in various combinations, eventually leading to the identification of the optimal UB progenitor culture medium UBCM consisting of FGF9, TTNPB, CHIR99021 (3 μM), GDNF, LDN193189, A83-01, R-Spondin1, JAKI and SB202190.

UB organoids = assay: 2nd round of CD differentiation condition screening (qRT-PCR of Aqp2 and Foxi1); conditions: for Foxi1 expression / Aqp2 expression: qRT-PCR, 7 days, under hBI+FGF9+Y27632 condition
Method: The functions of the mature renal CD system are carried out by two major cell populations that are intermingled throughout the entire CD network. The more abundant principal cells (PCs) concentrate the urine and regulate Na^+/K^+ homeostasis via water and Na^+/K^+ transporters. The less abundant α- and β-intercalated cells (ICs) regulate normal acid-base homeostasis via secretion of H^+ or HCO3^− into the urine. The absence of an in vitro system recapitulating PC and IC development in an appropriate 3D context, constrains physiological exploration, disease modeling and drug screening on the renal CD system. With this limitation in mind, we developed a screen to establish conditions supporting the differentiation of CD organoids, assaying expression of Aqp2 and Foxi1, definitive markers for PC and IC lineages, respectively, by quantitative reverse transcription PCR (qRT-PCR), following 7 days of culture under variable but defined culture conditions (FIG. 2A).
Agonists or antagonists targeting major developmental pathways (e.g. TGF-β, BMP, Wnt, FGF, Hedgehog and Notch) were tested, together with hormonal inputs known to regulate PC or IC activity (aldosterone and vasopressin).

Wnt11-RFP UB organoid [2] = assay: Withdrawal of individual components from UBCM (Stage IV validation); conditions: component withdrawn from UBCM
Description: To determine whether UBCM culture conditions enabled clonal growth from a single UPC, dissociated E11.5 UBs were embedded at clonal density in Matrigel and cultured in UBCM medium. Around 30% of the single cells self-organized into E11.5 UB-like budding structures within 5 days, though a smaller percentage (3-5%) maintained Wnt11-RFP (FIG. 1G), an efficiency similar to clonal organoid formation for Lgr5^+ intestinal stem cells. Importantly, the clonally-derived Wnt11-RFP^+ budding structures were identical to intact E11.5 UB-derived organoids in both branching morphology and growth rate (Table 3, FIG. 1H).
Lastly, in Stage IV, we asked whether each of the components in UBCM was essential.

Wnt11-RFP UB = assay: Stage II optimisation of individual UB medium components; conditions: titrated at 1, 3 and 6 μM
Description: In Stage II, we optimized the individual medium components employed by Yuri et al. (FGF1, RA, CHIR99021, and GDNF). We first asked if each individual factor was necessary in the medium. […] Then we further optimized these factors. RA is known to be unstable in tissue culture, so we replaced it with another widely used small molecule RA substitute TTNPB. CHIR99021 was used at 1p M by Yuri et al., but based on our own experiences and literature, different doses of CHIR99021 often have different biological effects. So we titrated it from 1p M, 3p M, to 6 μM, from which we identified 3 μM to be the optimal concentration. […] GDNF was unchanged in the medium, considering its essential role in maintaining the UB progenitor population in vitro and in vivo.

Cc1cccc(-c2nn(C(=S)Nc3ccccc3)cc2-c2ccnc3ccccc23)n1 [A83-01]
Wnt11-RFP (Wnt11-RFP UB organoid [1]): Better

NC(=O)c1ncn([C@@H]2O[C@H](CO)[C@@H](O)[C@H]2O)c1N [AICAR]
Wnt11-RFP (Wnt11-RFP UB organoid [1]): Slighty Better

C[C@]12CCC(=O)C=C1CC[C@@H]1[C@@H]2[C@@H](O)C[C@]2(C=O)[C@@H](C(=O)CO)CC[C@@H]12 [Aldosterone]
Foxi1 expression (UB organoids): preferential increase

Cc1c[nH]c(-c2cnc(NCCNc3ccc(C#N)cn3)nc2-c2ccc(Cl)cc2Cl)n1 [CHIR99021]
Effect of withdrawal of the component from UBCM on organoid growth (Wnt11-RFP UB organoid [2]): growth arrest
Optimal concentration (Wnt11-RFP UB): 3 µM

C[C@H](NC(=O)Cc1cc(F)cc(F)c1)C(=O)N[C@H](C(=O)OC(C)(C)C)c1ccccc1 [DAPT]
Aqp2 expression (UB organoids): dramatically increased
Foxi1 expression (UB organoids): dramatically increased
Wnt11-RFP (Wnt11-RFP UB organoid [1]): Better

CC(C)(C)c1nc2c3cc[nH]c(=O)c3c3cc(F)ccc3c2[nH]1 [JAKI]
Aqp2 expression (UB organoids): dramatically increased
Foxi1 expression (UB organoids): dramatically increased
Effect when used individually (Wnt11-RFP UB organoid [1]): only marginal effects
Wnt11-RFP (Wnt11-RFP UB organoid [1]): Slightly Better

c1ccc2c(-c3cnn4cc(-c5ccc(N6CCNCC6)cc5)cnc34)ccnc2c1 [LDN193189]
Wnt11-RFP (Wnt11-RFP UB organoid [1]): Better

CN(C)C(=N)NC(=N)N [Melformin]
Wnt11-RFP (Wnt11-RFP UB organoid [1]): Slightly Better

O=C(NOC[C@H](O)CO)c1ccc(F)c(F)c1Nc1ccc(I)cc1F [PD0325901]
Aqp2 expression (UB organoids): dramatically increased
Foxi1 expression (UB organoids): dramatically increased
Organoid growth (Wnt11-RFP UB organoid [1]): No growth
Wnt11-RFP (Wnt11-RFP UB organoid [1]): Dead at D 6

Oc1ccc(-c2nc(-c3ccncc3)c(-c3ccc(F)cc3)[nH]2)cc1 [S6202190]
Effect when used individually (Wnt11-RFP UB organoid [1]): only marginal effects
Wnt11-RFP (Wnt11-RFP UB organoid [1]): Slightly Better

NC(=O)CC[C@@H]1NC(=O)[C@H](Cc2ccccc2)NC(=O)[C@H](Cc2ccc(O)cc2)NC(=O)[C@@H](N)CSSC[C@@H](C(=O)N2CCC[C@H]2C(=O)N[C@@H](CCCN=C(N)N)C(=O)NCC(N)=O)NC(=O)[C@H](CC(N)=O)NC1=O [Vasopressin]
Aqp2 expression (UB organoids): enhanced

CN1C(=O)c2sccc2N(C)c2nc(Nc3ccc(S(N)(=O)=O)cc3)ncc21 [XMU-MP-1]
Organoid growth (Wnt11-RFP UB organoid [1]): No growth

Activin A: growth factor tested in screening
Note (UB organoids): Dramatic
Organoid growth (Wnt11-RFP UB organoid [1]): Slower
Wnt11-RFP (Wnt11-RFP UB organoid [1]): Worse

EGF: epidermal growth factor (NSDSECPLSHDGYCLHDGVCMYIEALDKYACNCVVGYIGERCQYRDLKWWELR; Epidermal growth factor; UniProt P01133 971-1023, looked up)
Wnt11-RFP (Wnt11-RFP UB organoid [1]): Better

FGF2: member of the FGF family
Wnt11-RFP (Wnt11-RFP UB organoid [1]): Worse

FGF20: member of the FGF family
Wnt11-RFP (Wnt11-RFP UB organoid [1]): Worse

Heparin
Wnt11-RFP (Wnt11-RFP UB organoid [1]): Slightly Better

SCF: growth factor tested in screening
Organoid growth (Wnt11-RFP UB organoid [1]): Slightly better
Wnt11-RFP (Wnt11-RFP UB organoid [1]): Better

Verteporfin
Organoid growth (Wnt11-RFP UB organoid [1]): Dead
